This passage reports EC50 results from patent US9475802B2, “Inhibitors of viral replication, their process of preparation and their therapeutical uses” (LABORATOIRE BIODIM, priority 2012, dated 2016).

One may read the EC50 as the concentration at which the effect is half-maximal. A high value points to lower potency in that assay.

The experiment deals with NL4-3 strain of HIV-1. In words: Inhibition of HIV replication: cyto-protection in Cell-Titer-Glo viability assay, MT4 cells infected with NL4-3 virus. Type of experiment: cell-based. Particulars: Human immunodeficiency virus 1, NL43, 120 h, concentration leading to 50% of cyto-protection, 5 days incubation, CellTiter-Glo luminescence. The protocol: The antiviral activity, particularly against HIV, of compounds according to the invention is evaluated by the protocol described below.
Preparation of Virus Stock of the NL4-3 Strain of HIV-1 (Adachi et al, J Virol, 1986, 59(2):284-91).
The virus was prepared as described in Lopez et al (Lopez et al, Proc Natl Acad Sci USA., 2006, 103(40):14947-52, by transfecting 2×10^6 293 T cells (CRL-1573, ATCC) with following modifications: 6 μg of NL4-3 proviral DNA molecular clone were mixed with Fugene 6 transfection reagent from Roche, and used according to manufacturer's instructions. Forty eight hours later, transfected cell supernatants were harvested, filtered through 0.45-μm-pore-size filters, quantified for HIV-1 p24 antigen by using a Innotest HIV antigen mAb assay (Ingen) according to manufacturer's instructions, and used in infection experiments.
Serial dilutions of compounds to be tested were prepared in complete RPMI medium from 10 mM DMSO stock solutions, and distributed in a volume of 20 μL in 96 well Falcon 353072 Microtest™ tissue culture plate, in order to get 0.5% DMSO final concentration in each well, after the addition of infected cells. Control wells contained also 0.5% DMSO final concentration but no compound.
MT^4 cells (from the NIH AIDS Research and Reference Reagent Program) in RPMI complete medium were counted (10×10^6 cells per well in Falcon 353047 Multiwell™ 24 well) and infected for 2 hours at 37°, at a multiplicity of infection (moi) of 0.0001-0.00001. Cells were then centrifuged 3 min at 3000 rpm, and washed two times in 1 ml PBS to remove viruses that have not entered in cells. Infected cells were resuspended in complete RPMI at 1.25×10^6 cells/ml, and 80 μl of infected cells were distributed in each well containing compounds to be tested or control wells. The plates were then incubated at 37° for 5 days.
Assay Used to Measure the Inhibition of HIV Replication by the Compounds (According to (According to Gregg S. Jones et al., Antimicrobial Agents and Chemotherapy, 2009, 53 (3): 1194-1203).
After 5 days of incubation, 50 μl of CellTiter-Glo reagent (Promega Biosciences, Inc., Madison Wis., USA) were added to each well. Cell lysis was carried out at room temperature during 10 min, 150 μl of lysates were transferred in Packard Optiplate 96 well, and luminescence was read on a Fluoroskan (Thermo Scientific).
The EC50, or effective concentration 50, is the concentration of compound leading to 50% of cyto-protection in a Cell-Titer-Glo® viability assay based on MT^4 cells infected with NL4-3 virus (table 1).
Compound `CC(C)(C)OC(C(=O)O)c1c(C(F)(F)F)ccc(-c2ccc(=O)n(CCC3CC3)c2)c1-c1ccc2c(c1)CCCO2` (stereo not shown) [Example 31, 2-(tert-butoxy)-2-{3-[1-(2-cyclopropylethyl)-6-oxo-1,6-dihydropyridin-3-yl]-2-(3,4-dihydro-2H-1-benzopyran-6-yl)-6-(trifluoromethyl)phenyl}acetic acid] returned an EC50 of 260 nM.

In turn, `CC(C)(C)OC(C(=O)O)c1c(C(F)(F)F)ccc(-n2ccc(-c3ccccc3)n2)c1-c1ccc2c(c1)CCCO2` (stereo not shown) [Example 5, 2-(tert-butoxy)-2-[2-(3,4-dihydro-2H-1-benzopyran-6-yl)-3-(3-phenyl-1H-pyrazol-1-yl)-6-(trifluoromethyl)phenyl]acetic acid] registered an EC50 of 760 nM. To `CC(C)(C)OC(C(=O)O)c1c(C(F)(F)F)ccc(-c2cccn(CC3CCC3)c2=O)c1-c1ccc2c(c1)CCCO2` (stereo not shown) [Example 38, 2-(tert-butoxy)-2-{3-[1-(cyclobutylmethyl)-2-oxo-1,2-dihydropyridin-3-yl]-2-(3,4-dihydro-2H-1-benzopyran-6-yl)-6-(trifluoromethyl)phenyl}acetic acid] belongs 130 nM; to `CC(C)Cn1cc(-c2ccc(C(F)(F)F)c(C(OC(C)(C)C)C(=O)O)c2-c2ccc3c(c2)CCCO3)ccc1=O` (stereo not shown) [Example 32, 2-(tert-butoxy)-2-[2-(3,4-dihydro-2H-1-benzopyran-6-yl)-3-[1-(2-methylpropyl)-6-oxo-1,6-dihydropyridin-3-yl]-6-(trifluoromethyl)phenyl]acetic acid], 85 nM.

`CC(C)(C)OC(C(=O)O)c1c(C(F)(F)F)ccc(-c2ccnc(OCc3ccccc3)c2)c1-c1ccc2c(c1)CCCO2` (stereo not shown) [Example 6, 2-{3-[2-(benzyloxy)pyridin-4-yl]-2-(3,4-dihydro-2H-1-benzopyran-6-yl)-6-(trifluoromethyl)phenyl}-2-(tert-butoxy)acetic acid]: a half-maximal response (EC50) required 260 nM. As for `CC(C)(C)OC(C(=O)O)c1c(C(F)(F)F)ccc(-c2ccccc2)c1-c1ccc2c(c1)CCCO2` (stereo not shown) [Example 1, 2-(tert-butoxy)-2-[2-(3,4-dihydro-2H-1-benzopyran-6-yl)-3-phenyl-6-(trifluoromethyl)phenyl]acetic acid], the figure is 260 nM; as for `CNC(=O)c1ccc(-c2ccc(C(F)(F)F)c(C(OC(C)(C)C)C(=O)O)c2-c2ccc3c(c2)CCCO3)cc1` (stereo not shown) [Example 19, 2-(tert-butoxy)-2-[2-(3,4-dihydro-2H-1-benzopyran-6-yl)-3-[4-(methylcarbamoyl)phenyl]-6-(trifluoromethyl)phenyl]acetic acid], 330 nM; as for `CC(C)(C)OC(C(=O)O)c1c(C(F)(F)F)ccc(-c2ccncc2)c1-c1ccc2c(c1)CCCO2` (stereo not shown) [Example 2, 2-(tert-butoxy)-2-[2-(3,4-dihydro-2H-1-benzopyran-6-yl)-3-(pyridin-4-yl)-6-(trifluoromethyl)phenyl]acetic acid], 250 nM. To `CC(C)(C)OC(C(=O)O)c1c(C(F)(F)F)ccc(-n2cc(Br)cn2)c1-c1ccc2c(c1)CCCO2` (stereo not shown) [Example 9, 2-[3-(4-bromo-1H-pyrazol-1-yl)-2-(3,4-dihydro-2H-1-benzopyran-6-yl)-6-(trifluoromethyl)phenyl]-2-(tert-butoxy)acetic acid] belongs 360 nM.

As for `Cn1cc(-c2ccc(C(F)(F)F)c(C(OC(C)(C)C)C(=O)O)c2-c2ccc3c(c2)CCCO3)cn1` (stereo not shown) [Example 4, 2-(tert-butoxy)-2-[2-(3,4-dihydro-2H-1-benzopyran-6-yl)-3-(1-methyl-1H-pyrazol-4-yl)-6-(trifluoromethyl)phenyl]acetic acid], a half-maximal effect (EC50) was put at 120 nM.
